Earlier results in patent publication US8680301B2, “Lipase activity inhibitors containing high-molecular weight polyphenol fractions, tea extracts, and processes for producing the same” (Suntory Holdings Limited, priority 2004, dated 2014).

Conditions: clinical reports

SMILES | Reported side effects
OC1(c2ccc(Cl)cc2)c2ccccc2C2=NCCN21 (centres unmarked) [Mazindole®] | side effects such as excessive thirst (mouth dryness), constipation, epigastric distress, nausea and vomiting
CCCCCCCCCCC[C@@H](C[C@@H]1OC(=O)[C@H]1CCCCCC)OC(=O)[C@H](CC(C)C)NC=O [Xenical®] | side effects such as fatty stool, increased stool frequency, soft stool, diarrhea and stomachache
